Test results published in patent US8604016B2, “Heterocyclic inhibitors of glutaminase” (Calithera Biosciences Inc., priority 2011, dated 2013).
pIC50: −log10 of the molar value.

target: recombinant form of Glutaminase 1 (GAC) (Homo sapiens, UniProt O94925); assay: Recombinant Enzyme Assay (GAC coupled to GDH, NADH absorbance, no preincubation); type: biochemical; details: no preincubation; read-out: GAC Delta N2 IC50 no preinc
In short: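 GAC (4 nM) in Tris-HCl pH 8.0 with 150 mM K2HPO4, EDTA, BSA, DTT, plus 4 units/ml GDH and 4 mM ADP, without preincubation. Absorbance at 340 nm was read kinetically for 15 min at 20° C. Slopes (mAU/min) were compared with DMSO-only and control-compound wells on the same plate.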

Compound	pIC50
O=C(Cc1coc2ccccc12)Nc1nnc(CCSCCc2nnc(NC(=O)Cc3coc4ccccc34)s2)s1 [Compound 221]	< 4.70
O=C(Cc1coc2ccccc12)Nc1nnc(CCCCc2nnc(NC(=O)Cc3coc4ccccc34)s2)s1 [Compound 222]	< 4.70
CC1(C)O[C@H](C(=O)Nc2nnc(CCCCc3nnc(NC(=O)[C@H]4OC(C)(C)O[C@@H]4c4ccccc4)s3)s2)[C@@H](c2ccccc2)O1 [Compound 224]	< 4.70
O=C(Nc1nnc(CCCCc2nnc(NC(=O)[C@H](O)[C@@H](O)c3ccccc3)s2)s1)[C@H](O)[C@@H](O)c1ccccc1 [Compound 225]	< 4.70
O=C(Nc1nnc(CCCCc2nnc(NC(=O)[C@@H](O)[C@H](O)c3ccccc3)s2)s1)[C@@H](O)[C@H](O)c1ccccc1 [Compound 226]	5.64
Nc1nnc(CCCCc2nnc(NC(=O)C(CO)c3ccccc3)s2)s1 (stereo not drawn) [Compound 227]	5.00
O=C(CCN1CCOCC1)OCC(C(=O)Nc1nnc(CCCCc2nnc(NC(=O)C(CO)c3ccccc3)s2)s1)c1ccccc1 (stereo not drawn) [Compound 228, 3-((5-{4-[5-(3-hydroxy-2-phenylpropanamido)-1,3,4-thiadiazol-2-yl]butyl}-1,3,4-thiadiazol-2-yl)amino)-3-oxo-2-phenylpropyl 3-morpholinopropanoate]	6.24
O=C(Nc1nnc(CCCCc2nnc(NC(=O)c3ccnn3-c3ccccc3)s2)s1)c1ccnn1-c1ccccc1 [Compound 229]	5.41
NCC(C(=O)Nc1nnc(CCSCCc2nnc(NC(=O)C(CN)c3ccccc3)s2)s1)c1ccccc1 (stereo not drawn) [Compound 230]	4.92
NCC(C(=O)Nc1nnc(CCCCc2nnc(NC(=O)C(CN)c3ccccc3)s2)s1)c1ccccc1 (stereo not drawn) [Compound 231]	5.13
CC(=O)NCC(C(=O)Nc1nnc(CCSCCc2nnc(NC(=O)C(CNC(C)=O)c3ccccc3)s2)s1)c1ccccc1 (stereo not drawn) [Compound 232]	5.01
O=C(Cc1cc2ccccc2s1)Nc1nnc(CCCCc2nnc(NC(=O)Cc3cc4ccccc4s3)s2)s1 [Compound 233]	4.82
COC(=O)C(C(=O)Nc1nnc(CCSCCc2nnc(NC(=O)C(C(=O)OC)c3ccccc3)s2)s1)c1ccccc1 (stereo not drawn) [Compound 234]	5.70
O=C(Cc1cccs1)Nc1nnc(CCSCc2nnc(NC(=O)Cc3cccs3)s2)s1 [Compound 237]	6.70
O=C(CN1C(=O)OC[C@H]1c1ccccc1)Nc1nnc(CCSCCc2nnc(NC(=O)CN3C(=O)OC[C@H]3c3ccccc3)s2)s1 [Compound 243]	5.57
CCOC(=O)Nc1nnc(CCCCc2nnc(NC(=O)Cc3ccccc3)s2)s1 [Compound 244]	6.08
COc1ccccc1C(CO)C(=O)Nc1nnc(CCSCCc2nnc(NC(=O)C(CO)c3ccccc3OC)s2)s1 (stereo not drawn) [Compound 245]	6.28
COc1ccccc1CC(=O)Nc1nnc(CCSCCc2nnc(NC(=O)C(CO)c3ccccc3OC)s2)s1 (stereo not drawn) [Compound 246]	6.40
Cc1cccc(CC(=O)Nc2nnc(CCSCCc3nnc(NC(=O)Cc4cccc(C)c4)s3)s2)c1 [Compound 247]	6.72
COc1ccccc1CC(=O)Nc1nnc(CCSCc2nnc(NC(=O)Cc3ccccc3OC)s2)s1 [Compound 249]	6.92

Compound	pIC50
COCOCCOC(C(=O)Nc1nnc(CCCCc2nnc(NC(=O)C(OCCOCOC)c3ccccc3)s2)s1)c1ccccc1 (stereo not drawn) [Compound 251]	5.55
O=C(Nc1nnc(CCCCc2nnc(NC(=O)C(OCCO)c3ccccc3)s2)s1)C(OCCO)c1ccccc1 (stereo not drawn) [Compound 252]	5.92
O=C(CO)Nc1nnc(CCSCCc2nnc(NC(=O)CO)s2)s1 [Compound 253]	4.68
CC(=O)OCC(=O)Nc1nnc(CCSCCc2nnc(NC(=O)CO)s2)s1 [Compound 254]	< 4.70
O=C(Cc1ccccc1Cl)Nc1nnc(CCSCCc2nnc(NC(=O)Cc3ccccc3Cl)s2)s1 [Compound 255]	6.42
COc1cccc(C(CO)C(=O)Nc2nnc(CCCCc3nnc(NC(=O)C(CO)c4cccc(OC)c4)s3)s2)c1 (stereo not drawn) [Compound 257]	6.92
COc1cccc(C(CO)C(=O)Nc2nnc(CCSCc3nnc(NC(=O)C(CO)c4cccc(OC)c4)s3)s2)c1 (stereo not drawn) [Compound 258]	6.72
COc1cccc(CC(=O)Nc2nnc(CCSCCc3nnc(NC(=O)Cc4cccc(OC)c4OC)s3)s2)c1OC [Compound 259]	6.64
COc1cccc(CC(=O)Nc2nnc(CCCCc3nnc(NC(=O)Cc4cccc(OC)c4OC)s3)s2)c1OC [Compound 260]	6.82
CC(C(=O)Nc1nnc(CCSCCc2nnc(NC(=O)C(C)c3ccccc3Cl)s2)s1)c1ccccc1Cl (stereo not drawn) [Compound 261]	6.15
Cc1ccccc1C(C)C(=O)Nc1nnc(CCSCCc2nnc(NC(=O)C(C)c3ccccc3C)s2)s1 (stereo not drawn) [Compound 262]	6.44
COc1ccccc1C(C)C(=O)Nc1nnc(CCSCCc2nnc(NC(=O)C(C)c3ccccc3OC)s2)s1 (stereo not drawn) [Compound 263]	6.49
COc1ccccc1CC(=O)Nc1nnc(CCCCc2nnc(NC(=O)Cc3ccccc3OC)s2)s1 [Compound 264]	7.14
COc1ccc(OC)c(CC(=O)Nc2nnc(CCCc3nnc(NC(=O)Cc4cc(OC)ccc4OC)s3)s2)c1 [Compound 265]	6.57
O=C(Cc1cccc(OCCN2CCOCC2)c1)Nc1nnc(CCSCc2nnc(NC(=O)Cc3cccc(OCCN4CCOCC4)c3)s2)s1 [Compound 267]	6.21
O=C(Cc1ccc2ncccc2c1)Nc1nnc(CCSCCc2nnc(NC(=O)Cc3ccc4ncccc4c3)s2)s1 [Compound 268]	6.22
O=C(Cc1ccc2ncccc2c1)Nc1nnc(CCCCc2nnc(NC(=O)Cc3ccc4ncccc4c3)s2)s1 [Compound 269]	6.59
CC(C(=O)Nc1nnc(CCCCc2nnc(NC(=O)C(C)c3ccccc3Cl)s2)s1)c1ccccc1Cl (stereo not drawn) [Compound 274]	6.12
O=C(Cc1cccc(Br)c1)Nc1nnc(CCCCc2nnc(NC(=O)Cc3cccc(Br)c3)s2)s1 [Compound 284]	< 4.70
O=C(Cc1cccc(-n2cccn2)c1)Nc1nnc(CCCCc2nnc(NC(=O)Cc3cccc(-n4cccn4)c3)s2)s1 [Compound 285]	6.72

Now from value to molecule:

pIC50	Compound
5.66	CC(=O)NCC(C(=O)Nc1nnc(CCCCc2nnc(NC(=O)C(CNC(C)=O)c3ccccc3)s2)s1)c1ccccc1 (stereo not drawn) [Compound 266]
7.00	COc1ccc(OC)c(CC(=O)Nc2nnc(CCCCc3nnc(NC(=O)Cc4ccccc4)s3)s2)c1 [Compound 271]
< 4.70	CC(C)[C@H](NC(=O)OC(C)(C)C)C(=O)OCC(C(=O)Nc1nnc(CCCCc2nnc(NC(=O)C(COC(=O)[C@@H](NC(=O)OC(C)(C)C)C(C)C)c3ccccc3)s2)s1)c1ccccc1 (stereo partly drawn) [Compound 272]
6.85	O=C(Cc1cccc(F)c1)Nc1nnc(CCCCc2nnc(NC(=O)Cc3cccc(F)c3)s2)s1 [Compound 273]
< 4.70	CC1(C)OCC(C(=O)Nc2nnc(CCCCc3nnc(NC(=O)C4(c5ccccc5)COC(C)(C)O4)s3)s2)(c2ccccc2)O1 (stereo not drawn) [Compound 277]
6.42	O=C(Nc1nnc(CCCCc2nnc(NC(=O)C(O)(CO)c3ccccc3)s2)s1)C(O)(CO)c1ccccc1 (stereo not drawn) [Compound 278]
6.17	CC1(C)OCC(C(=O)Nc2nnc(CCCCc3nnc(NC(=O)Cc4ccccc4)s3)s2)(c2ccccc2)O1 (stereo not drawn) [Compound 279]
6.54	O=C(Cc1ccccc1)Nc1nnc(CCCCc2nnc(NC(=O)C(O)(CO)c3ccccc3)s2)s1 (stereo not drawn) [Compound 280]
6.13	C=C(C(=O)Nc1nnc(CCCCc2nnc(NC(=O)C(COC(=O)CCN3CCOCC3)c3ccccc3)s2)s1)c1ccccc1 (stereo not drawn) [Compound 281]
7.09	O=C(Cc1ccccc1Br)Nc1nnc(CCCCc2nnc(NC(=O)Cc3ccccc3Br)s2)s1 [Compound 282]
6.18	O=C(Cc1ccccc1Br)Nc1nnc(CCSCCc2nnc(NC(=O)Cc3ccccc3Br)s2)s1 [Compound 283]
6.24	O=C(Nc1nnc(CCCCc2nnc(NC(=O)C(O)c3ccccc3Br)s2)s1)C(O)c1ccccc1Br (stereo not drawn) [Compound 287]
4.49	CC(CCC(C)c1nnc(NC(=O)Cc2ccccc2)s1)c1nnc(NC(=O)Cc2ccccc2)s1 (stereo not drawn) [Compound 289]
6.10	O=C(Cc1ccccc1)Nc1nnc(CCCCc2nnc(NC(=O)[C@H]3CCCC[C@@H]3C(=O)c3ccccc3)s2)s1 [Compound 290]
5.82	CC(C)[C@H](N)C(=O)OCC(C(=O)Nc1nnc(CCCCc2nnc(NC(=O)C(COC(=O)[C@@H](N)C(C)C)c3ccccc3)s2)s1)c1ccccc1 (stereo partly drawn) [Compound 291]
6.92	O=C(Cc1ccccc1F)Nc1nnc(CCCCc2nnc(NC(=O)Cc3ccccc3F)s2)s1 [Compound 292]
6.62	O=C(Cc1c(F)cccc1F)Nc1nnc(CCCCc2nnc(NC(=O)Cc3c(F)cccc3F)s2)s1 [Compound 293]
6.70	O=C(Cc1ccccc1F)Nc1nnc(CCSCCc2nnc(NC(=O)Cc3ccccc3F)s2)s1 [Compound 294]
7.00	Cc1nccn1Cc1cccc(CC(=O)Nc2nnc(CCCCc3nnc(NC(=O)Cc4cccc(Cn5ccnc5C)c4)s3)s2)c1 [Compound 296]
5.19	CN(C)CC(=O)Nc1nnc(CCCCc2nnc(NC(=O)Cc3ccccc3)s2)s1 [Compound 297]
6.14	O=C(Cc1c(F)cccc1F)Nc1nnc(CCSCCc2nnc(NC(=O)Cc3c(F)cccc3F)s2)s1 [Compound 298]
6.48	CCOc1ccccc1CC(=O)Nc1nnc(CCSCCc2nnc(NC(=O)Cc3ccccc3OCC)s2)s1 [Compound 299]
6.80	CCOc1ccccc1CC(=O)Nc1nnc(CCCCc2nnc(NC(=O)Cc3ccccc3OCC)s2)s1 [Compound 300]
< 4.70	O=C(OCC(C(=O)Nc1nnc(CCCCc2nnc(NC(=O)C(COC(=O)C3CCN(C(=O)OCc4ccccc4)CC3)c3ccccc3)s2)s1)c1ccccc1)C1CCN(C(=O)OCc2ccccc2)CC1 (stereo not drawn) [Compound 301]
5.15	O=C(OCC(C(=O)Nc1nnc(CCCCc2nnc(NC(=O)C(COC(=O)C3CCNCC3)c3ccccc3)s2)s1)c1ccccc1)C1CCNCC1 (stereo not drawn) [Compound 302]
< 4.70	O=C(Nc1nnc(CCCCc2nnc(NC(=O)C(F)(F)c3ccccc3)s2)s1)C(F)(F)c1ccccc1 [Compound 303]
